# Test results reported in patent publication US20240390464A1, “Treatment of Adults With Overweight or Obesity With or Without Weight-Related Comorbidities” (Carmot Therapeutics Inc., priority 2023, published 2024).
# Read-outs that look alike come from different tables or passages of the source. Numbered stars: 1 amine (or outer) side, 2 acyl side, 3 side chain; on linkers, the order of the positions; unused ones are H or OH. Square brackets hold non-standard residues; d marks the D form. Side chains are listed from the residue outwards. Peptide text beside a SMILES is read from it. * marks the point of attachment. Isobutyryl(2-(3-CN-5-F-Ph)) = CC(C)(C(=O)*)c1cc(F)cc(C#N)c1; C20 diacid = O=C(O)CCCCCCCCCCCCCCCCCCC(=O)*; γGlu = O=C(O)[C@H](CCC(=O)[*:2])N[*:1]; AEEA = NCCOCCOCC(=O)O; Aib = CC(C)(N)C(=O)O; βAla = NCCC(=O)O
# Assays:
# [1] = chronic toxicology, repeat dosing 39 weeks; type: in vivo; conditions: monkeys
# From the text: Thus, CT-388 can be a potent drug that induces significant weight loss and helps achieve optimal glycemic control, with acceptable tolerability, in overweight or obese adults with or without T2DM or other weight-related comorbidities. CT-388 can potentially be used as a non-invasive alternative to bariatric surgery for weight management.
# [2] = Phase 1 SAD Cohorts 1-5: pharmacokinetics; conditions: human, in vivo; for Vd/F: read-out: Vz/F
# Method: The secondary objectives are: • To evaluate the pharmacokinetics of single-ascending doses of CT-388 in otherwise healthy overweight and obese adult participants; and • To evaluate the pharmacodynamic (PD) effect of a single dose of CT-388 on body weight and glucose homeostasis in both the fasted state and in the setting of a mixed meal tolerance test (MMTT) challenge in otherwise healthy overweight and obese adult participants.
# • Cohort 1: One dose containing 0.5 mg of CT-388 or matched placebo administered subcutaneously in the abdomen • Cohort 2: One dose containing 2.0 mg of CT-388 or matched placebo administered subcutaneously in the abdomen • Cohort 3: One dose containing 5.0 mg of CT-388 or matched placebo administered subcutaneously in the abdomen • Cohort 4: One dose containing 7.5 mg of CT-388 or matched placebo administered subcutaneously in the abdomen • Cohort 5: One dose containing 6.0 mg of CT-388 or matched placebo administered subcutaneously in the abdomen
# Time-concentration profiles following a single dose SC administration of CT-388 to participants in Cohort 1 (0.5 mg), Cohort 2 (2 mg), Cohort 3 (5 mg), Cohort 4 (7.5 mg) and Cohort 5 (6 mg) are shown in Table 8 below.
# [3] = Cohort 1, single SC dose 0.5 mg, mean ± standard deviation
# [4] = Cohort 2, single SC dose 2 mg, mean ± standard deviation
# [5] = Cohort 3, single SC dose 5 mg, mean ± standard deviation
# [6] = Cohort 4, single SC dose 7.5 mg, mean ± standard deviation
# [7] = Cohort 5, single SC dose 6 mg, mean ± standard deviation
structure (smiles),measurement,setting,value
CC[C@H](C)[C@H](NC(=O)[C@H](CC(C)C)NC(=O)[C@H](Cc1c[nH]c2ccccc12)NC(=O)[C@H](CCC(N)=O)NC(=O)[C@@H](NC(=O)[C@H](Cc1ccccc1)NC(=O)[C@H](C)NC(=O)[C@H](CCCCNC(=O)COCCOCCNC(=O)COCCOCCNC(=O)CC[C@H](NC(=O)CCCCCCCCCCCCCCCCCCC(=O)O)C(=O)O)NC(=O)[C@H](CCC(N)=O)NC(=O)[C@H](C)NC(=O)[C@@H](NC(=O)[C@H](CCCCN)NC(=O)[C@H](CC(=O)O)NC(=O)[C@H](CC(C)C)NC(=O)C(C)(C)NC(=O)[C@@H](NC(=O)[C@H](CO)NC(=O)[C@H](Cc1ccc(O)cc1)NC(=O)[C@H](CC(=O)O)NC(=O)[C@H](CO)NC(=O)[C@@H](NC(=O)[C@H](Cc1ccccc1)NC(=O)[C@@H](NC(=O)CNC(=O)[C@H](CCC(=O)O)NC(=O)CCNC(=O)C(C)(C)c1cc(F)cc(C#N)c1)[C@@H](C)O)[C@@H](C)O)[C@@H](C)CC)[C@@H](C)CC)C(C)C)C(=O)N[C@@H](C)C(=O)NCC(=O)NCC(=O)N1CCC[C@H]1C(=O)N[C@@H](CO)C(=O)N[C@@H](CO)C(=O)NCC(=O)N[C@@H](C)C(=O)N1CCC[C@H]1C(=O)N1CCC[C@H]1C(=O)N1CCC[C@H]1C(=O)N[C@@H](CO)C(N)=O [CT-388] ({Isobutyryl(2-(3-CN-5-F-Ph))-βAla}-EGTFTSDYSI[Aib]LDKIAQK([AEEA-AEEA-γGlu-C20 diacid])AFVQWLIAGGPSSGAPPPS-NH2),tolerated dosing exceeds the pharmacologically active dose,[1]; 39-weeks,100 fold
same,"tolerability, chronic toxicology",[1]; repeat dosing over 39-weeks,well tolerated
same,AUC(0-inf),[2]; [3],12900 ± 1090 ng·h/mL
same,CL/F,[2]; [3],0.65 mL/min
same,Cmax,[2]; [3],52.4 ± 10 ng/mL
same,MRT last,[2]; [3],128 ± 8.2 h
same,Vd/F,[2]; [3],5.8 ± 0.7 L
same,half-life,"[2]; Cohort 1, single SC dose 0.5 mg, range of minimum to maximum, read-out: t1/2 range",91.9 to 171 h
same,AUC(0-inf),[2]; [4],47400 ± 10600 ng·h/mL
same,CL/F,[2]; [4],0.733 mL/min
same,Cmax,[2]; [4],216 ± 51.4 ng/mL
same,MRT last,[2]; [4],122 ± 5.6 h
same,Vd/F,[2]; [4],7.7 ± 1.8 L
same,half-life,"[2]; Cohort 2, single SC dose 2 mg, range of minimum to maximum, read-out: t1/2 range",108 to 142 h
same,CL/F,"[2]; Cohort 3, single SC dose 5 mg, mean",0.64 mL/min
same,AUC(0-inf),[2]; [5],140000 ± 41700 ng·h/mL
same,Cmax,[2]; [5],831 ± 263 ng/mL
same,MRT last,[2]; [5],114 ± 2.3 h
same,Vd/F,[2]; [5],6.8 ± 2.1 L
same,half-life,"[2]; Cohort 3, single SC dose 5 mg, range of minimum to maximum, read-out: t1/2 range",108 to 146 h
same,CL/F,"[2]; Cohort 4, single SC dose 7.5 mg, mean",0.547 mL/min
same,AUC(0-inf),[2]; [6],235000 ± 39000 ng·h/mL
same,Cmax,[2]; [6],1160 ± 110 ng/mL
same,MRT last,[2]; [6],119 ± 5.3 h
same,Vd/F,[2]; [6],6.6 ± 1.3 L
same,half-life,"[2]; Cohort 4, single SC dose 7.5 mg, range of minimum to maximum, read-out: t1/2 range",117 to 151 h
same,AUC(0-inf),[2]; [7],100000 ± 15000 ng·h/mL
same,CL/F,[2]; [7],0.99 mL/min
same,Cmax,[2]; [7],552 ± 80.1 ng/mL
same,MRT last,[2]; [7],122 ± 9.6 h
same,Vd/F,[2]; [7],11 ± 1.2 L
same,half-life,"[2]; Cohort 5, single SC dose 6 mg, range of minimum to maximum, read-out: t1/2 range",101 to 141 h
same,Tmax,"[2]; SAD Cohorts 1-5, single SC dose, all except two individual cases",> 24 h
same,half-life,"[2]; SAD Cohorts 1-5, single SC dose, read-out: t1/2 (median) (converted)",~120 h
